Measured values taken from patent publication US20230322747A1, “OXADIAZOLE HDAC6 INHIBITORS AND USES THEREOF” (Eikonizo Therapeutics, Inc., priority 2022, published 2023).

molecular target: Human HDAC6 (Homo sapiens (Human), UniProt Q9UBN7); assay: HDAC6 enzymatic activity assay (Caliper endpoint or fluorogenic format); format: biochemical; settings: in vitro enzymatic
Sequence (Q9UBN7 whole entry): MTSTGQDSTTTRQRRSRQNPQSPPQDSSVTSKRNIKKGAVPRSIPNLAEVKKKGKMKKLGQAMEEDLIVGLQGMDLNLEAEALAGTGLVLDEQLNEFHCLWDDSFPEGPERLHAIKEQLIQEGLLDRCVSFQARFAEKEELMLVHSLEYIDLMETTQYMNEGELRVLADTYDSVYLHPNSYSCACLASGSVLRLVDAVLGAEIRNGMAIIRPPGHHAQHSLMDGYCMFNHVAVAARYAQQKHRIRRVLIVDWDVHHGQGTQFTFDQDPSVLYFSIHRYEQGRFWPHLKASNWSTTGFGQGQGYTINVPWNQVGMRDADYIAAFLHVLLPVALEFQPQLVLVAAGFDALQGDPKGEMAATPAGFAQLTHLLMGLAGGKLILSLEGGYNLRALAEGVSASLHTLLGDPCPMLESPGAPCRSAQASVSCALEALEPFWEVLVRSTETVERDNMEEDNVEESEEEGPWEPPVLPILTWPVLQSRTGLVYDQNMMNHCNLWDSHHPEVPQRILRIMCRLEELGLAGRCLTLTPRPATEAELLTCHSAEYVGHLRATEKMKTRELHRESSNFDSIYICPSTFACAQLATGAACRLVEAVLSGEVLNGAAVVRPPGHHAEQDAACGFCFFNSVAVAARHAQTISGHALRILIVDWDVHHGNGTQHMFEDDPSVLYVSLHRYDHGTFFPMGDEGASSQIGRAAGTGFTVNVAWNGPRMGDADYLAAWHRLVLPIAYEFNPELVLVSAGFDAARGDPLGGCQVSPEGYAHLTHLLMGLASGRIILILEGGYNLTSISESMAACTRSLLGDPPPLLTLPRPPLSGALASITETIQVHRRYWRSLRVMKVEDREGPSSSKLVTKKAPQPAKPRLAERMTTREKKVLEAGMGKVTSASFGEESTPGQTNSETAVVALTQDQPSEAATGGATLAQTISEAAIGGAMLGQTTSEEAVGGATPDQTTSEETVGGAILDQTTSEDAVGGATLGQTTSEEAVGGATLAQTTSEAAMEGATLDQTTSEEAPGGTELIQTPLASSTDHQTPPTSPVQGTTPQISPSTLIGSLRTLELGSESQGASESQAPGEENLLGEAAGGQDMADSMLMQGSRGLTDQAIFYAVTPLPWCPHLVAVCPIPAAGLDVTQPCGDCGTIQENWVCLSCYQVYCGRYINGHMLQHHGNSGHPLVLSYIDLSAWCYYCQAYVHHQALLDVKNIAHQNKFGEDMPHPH

| IC50 [µM] | SMILES |
| --- | --- |
| 0.001 to 0.1 | FC(F)c1nnc(-c2cnc(COc3ccc4nccnc4c3)nc2)o1 [Compound 150] |
| 0.001 to 0.1 | Fc1cc(-c2nnc(C(F)F)o2)cnc1COc1ccc2nccnc2c1 [Compound 151] |
| 0.001 to 0.1 | FC(F)c1nnc(-c2cnc(COc3ccc4ncccc4c3)nc2)o1 [Compound 152] |
| 0.001 to 0.1 | Fc1cc(-c2nnc(C(F)F)o2)cnc1COc1ccc2ncccc2c1 [Compound 153] |
| 0.001 to 0.1 | FC(F)c1nnc(-c2cnc(COc3ccc4cnccc4c3)nc2)o1 [Compound 154] |
| 0.001 to 0.1 | Fc1cc(-c2nnc(C(F)F)o2)cnc1COc1ccc2cnccc2c1 [Compound 155] |
| 0.001 to 0.1 | FC(F)c1nnc(-c2cnc(COc3ccc4ccncc4c3)nc2)o1 [Compound 156] |
| 0.001 to 0.1 | Fc1cc(-c2nnc(C(F)F)o2)cnc1COc1ccc2ccncc2c1 [Compound 157] |
| 0.001 to 0.1 | FC(F)c1nnc(-c2cnc(COc3cccc4nccnc34)nc2)o1 [Compound 158] |
| 0.001 to 0.1 | Fc1cc(-c2nnc(C(F)F)o2)cnc1COc1cccc2nccnc12 [Compound 159] |
| 0.001 to 0.1 | FC(F)c1nnc(-c2cnc(COc3cccc4cncnc34)nc2)o1 [Compound 160] |
| 0.001 to 0.1 | Fc1cc(-c2nnc(C(F)F)o2)cnc1COc1cccc2cncnc12 [Compound 161] |
| 0.001 to 0.1 | FC(F)c1nnc(-c2cnc(COc3cccnc3)nc2)o1 [Compound 162] |
| 0.001 to 0.1 | N#Cc1ccc(OCc2ncc(-c3nnc(C(F)F)o3)cn2)cc1 [Compound 164] |
| 0.001 to 0.1 | N#Cc1ccc(OCc2ncc(-c3nnc(C(F)F)o3)cc2F)cc1 [Compound 165] |
| 0.001 to 0.1 | N#Cc1cccc(OCc2ncc(-c3nnc(C(F)F)o3)cc2F)c1 [Compound 167] |
| 0.001 to 0.1 | C#Cc1ccccc1OCc1ncc(-c2nnc(C(F)F)o2)cn1 [Compound 168] |
| 0.1 to 1 | FC(F)c1nnc(-c2ccc(COc3ccc4c(c3)CCNC4)nc2)o1 [Compound 170] |
| 0.001 to 0.1 | Cn1cc2cc(OCc3ncc(-c4nnc(C(F)F)o4)cc3F)ccc2n1 [Compound 178, 2-(Difluoromethyl)-5-(5-fluoro-6-(((2-methyl-2H-indazol-5-yl)oxy)methyl)pyridin-3-yl)-1,3,4-oxadiazole] |
| 0.001 to 0.1 | Fc1cc(-c2nnc(C(F)F)o2)cnc1COc1cccc2ncncc12 [Compound 179, 2-(Difluoromethyl)-5-(5-fluoro-6-((quinazolin-5-yloxy)methyl)pyridin-3-yl)-1,3,4-oxadiazole] |
| 0.001 to 0.1 | Fc1cc(-c2nnc(C(F)F)o2)cnc1COc1ccc2cncnc2c1 [Compound 180, 2-(difluoromethyl)-5-(5-fluoro-6-((quinazolin-7-yloxy)methyl)pyridin-3-yl)-1,3,4-oxadiazole] |
| 0.001 to 0.1 | Fc1cc(-c2nnc(C(F)F)o2)cnc1COc1ccc2ncncc2c1 [Compound 181, 2-(Difluoromethyl)-5-(5-fluoro-6-((quinazolin-6-yloxy)methyl)pyridin-3-yl)-1,3,4-oxadiazole] |
| 0.001 to 0.1 | FC(F)c1nnc(-c2ccc(COc3cnc4ccnn4c3)nc2)o1 [Compound 183, 2-(Difluoromethyl)-5-(6-((pyrazolo[1,5-a]pyrimidin-6-yloxy)methyl)pyridin-3-yl)-1,3,4-oxadiazole] |
| 0.001 to 0.1 | FC(F)c1nnc(-c2ccc(COc3ccnc(-c4ccccc4)c3)nc2)o1 [Compound 186, 2-(Difluoromethyl)-5-(6-(((2-phenylpyridin-4-yl)oxy)methyl)pyridin-3-yl)-1,3,4-oxadiazole] |

Second part, the compound before the results:

| SMILES | IC50 [µM] |
| --- | --- |
| CC(Oc1ccc(F)cc1)c1ccc(-c2nnc(C(F)F)o2)cn1 (stereo not drawn) [AAA, 2-(Difluoromethyl)-5-(6-(1-(4-fluorophenoxy)ethyl)pyridin-3-yl)-1,3,4-oxadiazole] | 1 to 10 |
| FC(F)c1nnc(-c2ccc(C(F)(F)Oc3cccc4ccccc34)nc2)o1 [Compound 14, 2-(6-(difluoro(naphthalen-1-yloxy)methyl)pyridin-3-yl)-5-(difluoromethyl)-1,3,4-oxadiazole] | 0.1 to 1 |
| Fc1ccc(OCc2ncc(-c3nnc(C(F)F)o3)cn2)cc1F [Compound 22] | 0.001 to 0.1 |
| FC(F)c1nnc(-c2ccc(COCC3CC4CCC(C3)N4)nc2)o1 (stereo not drawn) [Compound 23] | 0.1 to 1 |
| CN1C[C@@]2(COCc3ccc(-c4nnc(C(F)F)o4)cn3)C[C@@H]1CO2 [Compound 25] | 0.1 to 1 |
| FC(F)c1nnc(-c2ccc(COc3cccc4ccncc34)nc2)o1 [Compound 33] | 0.001 to 0.1 |
| Cc1nc2ccc(OCc3ccc(-c4nnc(C(F)F)o4)cn3)cc2o1 [Compound 38] | 0.001 to 0.1 |
| Cn1ccc(OCc2ccc(-c3nnc(C(F)F)o3)cn2)n1 [Compound 66] | 0.001 to 0.1 |
| FC(F)c1nnc(-c2ccc(COc3ncccn3)nc2)o1 [Compound 78] | 0.1 to 1 |
| Cc1ncc(F)c(OCc2ccc(-c3nnc(C(F)F)o3)cn2)n1 [Compound 81] | 0.001 to 0.1 |
| FC(F)c1nnc(-c2ccc(COc3nccn4ccnc34)nc2)o1 [Compound 86, 2-(difluoromethyl)-5-(6-((imidazo[1,2-a]pyrazin-8-yloxy)methyl)pyridin-3-yl)-1,3,4-oxadiazole] | 0.001 to 0.1 |
| FC(F)c1nnc(-c2ccc(COc3nnc4ccccn34)nc2)o1 [Compound 87] | 0.001 to 0.1 |
| Cc1ccc2nnc(OCc3ccc(-c4nnc(C(F)F)o4)cn3)n2c1 [Compound 89] | 0.001 to 0.1 |
| FC(F)c1nnc(-c2ccc(COc3ccc(C(F)(F)F)cn3)nc2)o1 [Compound 94] | 0.1 to 1 |
| Cc1ccc2ncnc(OCc3ccc(-c4nnc(C(F)F)o4)cn3)c2c1 [Compound 95] | 0.001 to 0.1 |
| Cc1cccc2c(OCc3ccc(-c4nnc(C(F)F)o4)cn3)ncnc12 [Compound 96] | 0.001 to 0.1 |
| FC(F)c1nnc(-c2ccc(COc3ncnc4cc(Cl)ccc34)nc2)o1 [Compound 98] | 0.001 to 0.1 |
| FC(F)c1nnc(-c2ccc(COc3ncco3)nc2)o1 [Compound 100] | 0.1 to 1 |
| FC(F)c1nnc(-c2ccc(COc3cccnn3)nc2)o1 [Compound 103] | 0.1 to 1 |
| FC(F)c1nnc(-c2ccc(COc3ccncn3)nc2)o1 [Compound 104] | 0.001 to 0.1 |
| Cn1ccnc1OCc1ccc(-c2nnc(C(F)F)o2)cn1 [Compound 105] | 0.1 to 1 |
| Fc1cncnc1OCc1ccc(-c2nnc(C(F)F)o2)cn1 [Compound 107] | 0.001 to 0.1 |
| FC(F)c1nnc(-c2ccc(COC3CC4CCC(C3)O4)nc2)o1 (stereo not drawn) [Compound 109] | 0.1 to 1 |
| FC(F)c1nnc(-c2ccc(CO[C@@H]3C[C@H]4CC[C@@H](C3)O4)nc2)o1 [Compound 110] | 0.1 to 1 |
| CN1[C@@H]2CC[C@H]1C[C@H](OCc1ccc(-c3nnc(C(F)F)o3)cn1)C2 [Compound 113] | 1 to 10 |
| N#Cc1ccc(COCc2ccc(-c3nnc(C(F)F)o3)cn2)s1 [Compound 120] | 0.1 to 1 |

| SMILES | IC50 [µM] |
| --- | --- |
| CN1CCc2cc(OCc3ccc(-c4nnc(C(F)F)o4)cn3)ccc2C1 [Compound 121] | 0.1 to 1 |
| Fc1cc(-c2nnc(C(F)F)o2)cnc1COc1cccn2ccnc12 [Compound 123] | 0.001 to 0.1 |
| Fc1cc(-c2nnc(C(F)F)o2)cnc1COc1ccc2cccnc2c1 [Compound 124] | 0.001 to 0.1 |
| Fc1cc(-c2nnc(C(F)F)o2)cnc1COc1cccc2cnccc12 [Compound 125] | 0.001 to 0.1 |
| Fc1cc(-c2nnc(C(F)F)o2)cnc1COc1cccc2ccncc12 [Compound 126] | 0.001 to 0.1 |
| N#Cc1ccccc1OCc1ncc(-c2nnc(C(F)F)o2)cc1F [Compound 127] | 0.001 to 0.1 |
| C#Cc1cccc(OCc2ncc(-c3nnc(C(F)F)o3)cc2F)c1 [Compound 128] | 0.001 to 0.1 |
| Fc1ccc(OCc2ncc(-c3nnc(C(F)F)o3)cc2F)cc1F [Compound 129] | 0.001 to 0.1 |
| Fc1cc(-c2nnc(C(F)F)o2)cnc1COc1cccc2cccnc12 [Compound 130] | 0.001 to 0.1 |
| Fc1ccc(OCc2ncc(-c3nnc(C(F)F)o3)cc2F)c(F)c1 [Compound 131] | 0.001 to 0.1 |
| Fc1cc(-c2nnc(C(F)F)o2)cnc1COc1cccc2ncccc12 [Compound 132] | 0.001 to 0.1 |
| Cc1noc2cccc(OCc3ncc(-c4nnc(C(F)F)o4)cn3)c12 [Compound 134] | 0.001 to 0.1 |
| Cc1noc2cc(OCc3ncc(-c4nnc(C(F)F)o4)cn3)ccc12 [Compound 136] | 0.001 to 0.1 |
| Cc1noc2cc(OCc3ncc(-c4nnc(C(F)F)o4)cc3F)ccc12 [Compound 137, 6-((5-(5-(difluoromethyl)-1,3,4-oxadiazol-2-yl)-3-fluoropyridin-2-yl)methoxy)-3-methylbenzo[d]isoxazole] | 0.001 to 0.1 |
| Cn1ncc2cc(OCc3ncc(-c4nnc(C(F)F)o4)cn3)ccc21 [Compound 138] | 0.001 to 0.1 |
| Cn1ncc2cc(OCc3ncc(-c4nnc(C(F)F)o4)cc3F)ccc21 [Compound 139, 2-(difluoromethyl)-5-(5-fluoro-6-(((1-methyl-1H-indazol-5-yl)oxy)methyl)pyridin-3-yl)-1,3,4-oxadiazole] | 0.001 to 0.1 |
| Cc1nc2cc(OCc3ncc(-c4nnc(C(F)F)o4)cn3)ccc2o1 [Compound 140] | 0.001 to 0.1 |
| Cc1nc2cc(OCc3ncc(-c4nnc(C(F)F)o4)cc3F)ccc2o1 [Compound 141] | 0.001 to 0.1 |
| FC(F)c1nnc(-c2cnc(COc3ccc4ocnc4c3)nc2)o1 [Compound 142] | 0.001 to 0.1 |
| FC(F)c1nnc(-c2cnc(COc3cccc4ocnc34)nc2)o1 [Compound 144] | 0.001 to 0.1 |
| Cn1cnc2cc(OCc3ncc(-c4nnc(C(F)F)o4)cn3)ccc21 [Compound 146] | 0.001 to 0.1 |
| Cn1cnc2cc(OCc3ncc(-c4nnc(C(F)F)o4)cc3F)ccc21 [Compound 147] | 0.001 to 0.1 |
| Fc1ccc(OCc2ncc(-c3nnc(C(F)F)o3)cn2)cc1 [Compound 166, 2-(difluoromethyl)-5-(2-((4-fluorophenoxy)methyl)pyrimidin-5-yl)-1,3,4-oxadiazole] | 0.001 to 0.1 |
| Fc1cc(-c2nnc(C(F)F)o2)cnc1COc1ccc2ccccc2c1 [Compound 182, 2-(Difluoromethyl)-5-(5-fluoro-6-((naphthalen-2-yloxy)methyl)pyridin-3-yl)-1,3,4-oxadiazole] | 0.001 to 0.1 |
| FC(F)c1nnc(-c2ccc(COc3ccc(-c4ccccc4)cc3)nc2)o1 [Compound 185, 2-(6-(([1,1′-Biphenyl]-4-yloxy)methyl)pyridin-3-yl)-5-(difluoromethyl)-1,3,4-oxadiazole] | 0.001 to 0.1 |
